Reference: US9556165B2 (priority 2012, dated 2017)
In brackets after ≈: the same amount, converted by molar mass.

What was measured:
Type in all cases: cell-based
E. coli ATCC25922 = assay: MIC determination, broth microdilution (CLSI); settings: Escherichia coli, ATCC25922, strain 1
K. pneumoniae 60 = assay: MIC determination, broth microdilution (CLSI); settings: Klebsiella pneumoniae, 60, strain 2
E. cloacae 34654 = assay: MIC determination, broth microdilution (CLSI); settings: Enterobacter cloacae, 34654, strain 3
C. freundii K21/3034 = assay: MIC determination, broth microdilution (CLSI); settings: Citrobacter freundii, K21/3034, strain 4
M. morganii 126/3048 = assay: MIC determination, broth microdilution (CLSI); settings: Morganella morganii, 126/3048, strain 5
P. aeruginosa PAO1 = assay: MIC determination, broth microdilution (CLSI); settings: Pseudomonas aeruginosa, PAO1, strain 6
[1] = tested on: P. aeruginosa 2297 (AmpC wt); assay: MIC determination, broth microdilution (CLSI); settings: Pseudomonas aeruginosa, strain 7
[2] = tested on: P. aeruginosa 2297-con (AmpC derepressed); assay: MIC determination, broth microdilution (CLSI); settings: Pseudomonas aeruginosa, read-out: strain 8 MIC, strain 8
A. baumannii ATCC15308 = assay: MIC determination, broth microdilution (CLSI); settings: Acinetobacter baumannii, ATCC15308, strain 9
S. maltophilia ICB7569 = assay: MIC determination, broth microdilution (CLSI); settings: Stenotrophomonas maltophilia, ICB7569, strain 10
S. aureus 133 = assay: MIC determination, broth microdilution (CLSI); settings: Staphylococcus aureus, 133, strain 11; read-out: strain 11 MIC
M. catarrhalis ICB489 = assay: MIC determination, broth microdilution (CLSI); settings: Moraxella catarrhalis, ICB489, strain 12
H. influenzae ATCC 49247 = assay: MIC determination, broth microdilution (CLSI); settings: Haemophilus influenzae, ATCC49247, strain 13; read-out: strain 13 MIC
S. pneumoniae 113 = assay: MIC determination, broth microdilution (CLSI); settings: Streptococcus pneumoniae, 113, strain 14; read-out: strain 14 MIC
B. fragilis 6688 = assay: MIC determination, broth microdilution (CLSI); settings: Bacteroides fragilis, 6688, strain 15; read-out: strain 15 MIC
C. perfringens DSM756 = assay: microbe, parasite or virus in culture; settings: Clostridium perfringens, DSM756, read-out: strain 16 MIC, strain 16
E. coli J62 = assay: MIC determination, broth microdilution (CLSI); settings: Escherichia coli, J62, strain 17; read-out: strain 17 MIC
E. coli J62-TEM-3 = assay: MIC determination, broth microdilution (CLSI); settings: Escherichia coli, J62TEM3, read-out: strain 18 MIC, strain 18
strain 19 = assay: MIC determination, broth microdilution (CLSI)
strain 20 = assay: MIC determination, broth microdilution (CLSI)
strain 21 = assay: MIC determination, broth microdilution (CLSI)

| SMILES | MIC (E. coli ATCC25922) [µg/mL] | MIC (K. pneumoniae 60) [µg/mL] | MIC (E. cloacae 34654) [µg/mL] | MIC (C. freundii K21/3034) [µg/mL] | MIC (M. morganii 126/3048) [µg/mL] | MIC (P. aeruginosa PAO1) [µg/mL] | MIC [1] [µg/mL] | MIC [2] [µg/mL] | MIC (A. baumannii ATCC15308) [µg/mL] | MIC (S. maltophilia ICB7569) [µg/mL] | MIC (S. aureus 133) [µg/mL] | MIC (M. catarrhalis ICB489) [µg/mL] | MIC (H. influenzae ATCC 49247) [µg/mL] | MIC (S. pneumoniae 113) [µg/mL] | MIC (B. fragilis 6688) [µg/mL] | MIC (C. perfringens DSM756) [µg/mL] | MIC (E. coli J62) [µg/mL] | MIC (E. coli J62-TEM-3) [µg/mL] | MIC (strain 19) [µg/mL] | MIC (strain 20) [µg/mL] | also measured |
| --- | --- | --- | --- | --- | --- | --- | --- | --- | --- | --- | --- | --- | --- | --- | --- | --- | --- | --- | --- | --- | --- |
| CC1(C)[C@H](NC(=O)/C(=N\OCCOc2ccc(C(=N)NC3CCNCC3)cc2)c2csc(N)n2)C(=O)N1OS(=O)(=O)O [Example 23, (2Z)-2-(2-Amino-1,3-thiazol-4-yl)-N-[(3S)-2,2-dimethyl-4-oxo-1-(sulfooxy)azetidin-3-yl]-2-[(2-{4-[N-(piperidin-4-yl)carbamimidoyl]phenoxy}ethoxy)imino]ethanamide] | 0.125 (≈ 0.2 µM) | 0.25 (≈ 0.4 µM) | 0.5 (≈ 0.8 µM) | 0.125 (≈ 0.2 µM) | 0.5 (≈ 0.8 µM) | 2 (≈ 3.2 µM) | 2 (≈ 3.2 µM) | 2 (≈ 3.2 µM) | 0.5 (≈ 0.8 µM) | 16 (≈ 25.6 µM) | ≤ 0.063 | ≤ 0.063 | ≤ 0.063 | 1 (≈ 1.6 µM) | 4 (≈ 6.4 µM) | 2 (≈ 3.2 µM) | 0.25 (≈ 0.4 µM) | 1 (≈ 1.6 µM) | 0.125 (≈ 0.2 µM) | 0.125 (≈ 0.2 µM) | MIC (strain 21): 0.25 µg/mL (≈ 0.4 µM) |
| CC1(C)[C@H](NC(=O)/C(=N\OCCOc2ccc(C(=N)NCCN)cc2)c2csc(N)n2)C(=O)N1OS(=O)(=O)O [Example 24, (2Z)-2-[(2-{4-[N-(2-Aminoethyl)carbamimidoyl]phenoxy}ethoxy)imino]-2-(2-amino-1,3-thiazol-4-yl)-N-[(3S)-2,2-dimethyl-4-oxo-1-(sulfooxy)azetidin-3-yl]ethanamide] | 0.125 (≈ 0.214 µM) | 0.25 (≈ 0.428 µM) | 0.25 (≈ 0.428 µM) | 0.125 (≈ 0.214 µM) | 0.125 (≈ 0.214 µM) | 2 (≈ 3.42 µM) | 4 (≈ 6.84 µM) | 2 (≈ 3.42 µM) | 1 (≈ 1.71 µM) | 8 (≈ 13.7 µM) | ≤ 0.063 | ≤ 0.063 | ≤ 0.063 | 2 (≈ 3.42 µM) | 2 (≈ 3.42 µM) | 2 (≈ 3.42 µM) | 0.125 (≈ 0.214 µM) | 2 (≈ 3.42 µM) | 0.125 (≈ 0.214 µM) | 0.25 (≈ 0.428 µM) | MIC (strain 21): 0.5 µg/mL (≈ 0.855 µM) |
| CC1(C)[C@H](NC(=O)/C(=N\OCCOc2ccc(C3=NCCN3)cc2)c2csc(N)n2)C(=O)N1OS(=O)(=O)O [Example 25, (2Z)-2-(2-Amino-1,3-thiazol-4-yl)-2-({2-[4-(4,5-dihydro-1H-imidazol-2-yl)phenoxy]ethoxy}imino)-N-[(3S)-2,2-dimethyl-4-oxo-1-(sulfooxy)azetidin-3-yl]ethanamide] | 0.125 (≈ 0.22 µM) | 0.25 (≈ 0.44 µM) | 0.25 (≈ 0.44 µM) | 0.125 (≈ 0.22 µM) | 0.125 (≈ 0.22 µM) | 2 (≈ 3.52 µM) | 4 (≈ 7.05 µM) | 4 (≈ 7.05 µM) | 2 (≈ 3.52 µM) | 8 (≈ 14.1 µM) | ≤ 0.063 | ≤ 0.063 | ≤ 0.063 | 4 (≈ 7.05 µM) | 2 (≈ 3.52 µM) | 2 (≈ 3.52 µM) | 0.25 (≈ 0.44 µM) | 4 (≈ 7.05 µM) | 0.125 (≈ 0.22 µM) | 0.125 (≈ 0.22 µM) | MIC (strain 21): 0.125 µg/mL (≈ 0.22 µM) |
| CC1(C)[C@H](NC(=O)/C(=N\OCCOc2cnc(C(=N)N)c(O)c2)c2csc(N)n2)C(=O)N1OS(=O)(=O)O [Example 33, (2Z)-2-(2-Amino-1,3-thiazol-4-yl)-2-({2-[(6-carbamimidoyl-5-hydroxypyridin-3-yl)oxy]ethoxy}imino)-N-[(3S)-2,2-dimethyl-4-oxo-1-(sulfooxy)azetidin-3-yl]ethanamide] | 0.25 (≈ 0.448 µM) | 0.5 (≈ 0.895 µM) | 0.5 (≈ 0.895 µM) | 0.25 (≈ 0.448 µM) | 0.25 (≈ 0.448 µM) | 8 (≈ 14.3 µM) | 16 (≈ 28.6 µM) | 8 (≈ 14.3 µM) | 8 (≈ 14.3 µM) | 16 (≈ 28.6 µM) | ≤ 0.063 | 0.125 (≈ 0.224 µM) | ≤ 0.063 | 32 (≈ 57.3 µM) | 4 (≈ 7.16 µM) | 2 (≈ 3.58 µM) | 0.5 (≈ 0.895 µM) | 32 (≈ 57.3 µM) | 0.25 (≈ 0.448 µM) | 0.25 (≈ 0.448 µM) | MIC (strain 21): 0.5 µg/mL (≈ 0.895 µM) |
| CC1(C)[C@H](NC(=O)/C(=N\OCCOc2ccc(C(=N)NCCNC=N)cc2)c2csc(N)n2)C(=O)N1OS(=O)(=O)O [Example 38] | 0.125 (≈ 0.204 µM) | 0.25 (≈ 0.409 µM) | 0.25 (≈ 0.409 µM) | 0.125 (≈ 0.204 µM) | 0.5 (≈ 0.817 µM) | 4 (≈ 6.54 µM) | 8 (≈ 13.1 µM) | 4 (≈ 6.54 µM) | 0.25 (≈ 0.409 µM) | 32 (≈ 52.3 µM) | ≤ 0.063 | ≤ 0.063 | ≤ 0.063 | 2 (≈ 3.27 µM) | 4 (≈ 6.54 µM) | 2 (≈ 3.27 µM) | 0.25 (≈ 0.409 µM) | 4 (≈ 6.54 µM) | 0.125 (≈ 0.204 µM) | 0.25 (≈ 0.409 µM) | MIC (strain 21): 0.25 µg/mL (≈ 0.409 µM) |
| CC1(C)[C@H](NC(=O)/C(=N\OCCOc2ccc(C(=N)N[C@H]3CCNC3)cc2)c2csc(N)n2)C(=O)N1OS(=O)(=O)O [Example 39, (2Z)-2-(2-Amino-1,3-thiazol-4-yl)-N-[(3S)-2,2-dimethyl-4-oxo-1-(sulfooxy)azetidin-3-yl]-2-{[2-(4-{N-[(3S)-pyrrolidin-3-yl]carbamimidoyl}phenoxy)ethoxy]imino}ethanamide] | 0.25 (≈ 0.409 µM) | 0.5 (≈ 0.819 µM) | 0.5 (≈ 0.819 µM) | 0.25 (≈ 0.409 µM) | 0.5 (≈ 0.819 µM) | 2 (≈ 3.28 µM) | 4 (≈ 6.55 µM) | 2 (≈ 3.28 µM) | 0.5 (≈ 0.819 µM) | 16 (≈ 26.2 µM) | ≤ 0.063 | 0.25 (≈ 0.409 µM) | 0.25 (≈ 0.409 µM) | 2 (≈ 3.28 µM) | 16 (≈ 26.2 µM) | 8 (≈ 13.1 µM) | 0.25 (≈ 0.409 µM) | 4 (≈ 6.55 µM) | 0.125 (≈ 0.205 µM) | 0.25 (≈ 0.409 µM) | MIC (strain 21): 0.25 µg/mL (≈ 0.409 µM) |
